From ChEMBL document CHEMBL1208672, “Novel 8-arylated purines as inhibitors of glycogen synthase kinase” (Eur J Med Chem, 2010)

How the values were obtained:
[1] = target: Insulin-like growth factor 1 receptor (Homo sapiens) (UniProt P08069); experiment: Inhibition of IGF1R assessed as residual activity at 10 uM relative to control
[2] = target: Casein kinase II subunit alpha (Homo sapiens) (UniProt P68400); experiment: Inhibition of CK2alpha assessed as residual activity at 10 uM relative to control
[3] = target: T1, Glycogen synthase kinase-3 beta (Homo sapiens, UniProt P49841); experiment: Inhibition of human GSK3-beta assessed as residual activity at 10 uM relative to control
Target sequence in this assay (P49841 whole entry, looked up): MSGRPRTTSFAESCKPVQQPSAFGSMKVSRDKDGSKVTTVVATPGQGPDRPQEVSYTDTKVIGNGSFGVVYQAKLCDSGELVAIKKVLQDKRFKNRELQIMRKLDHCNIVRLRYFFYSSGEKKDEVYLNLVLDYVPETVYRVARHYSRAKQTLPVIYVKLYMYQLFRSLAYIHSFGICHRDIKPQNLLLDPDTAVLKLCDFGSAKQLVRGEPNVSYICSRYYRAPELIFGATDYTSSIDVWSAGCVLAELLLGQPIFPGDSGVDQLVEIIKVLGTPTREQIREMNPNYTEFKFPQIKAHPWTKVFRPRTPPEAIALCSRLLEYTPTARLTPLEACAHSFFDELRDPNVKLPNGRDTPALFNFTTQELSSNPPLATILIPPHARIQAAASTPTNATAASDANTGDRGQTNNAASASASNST

[4] = target: Mitogen-activated protein kinase 8 (Homo sapiens) (UniProt P45983); experiment: Inhibition of JNK1 assessed as residual activity at 10 uM relative to control
[5] = target: Casein kinase I isoform alpha (Homo sapiens) (UniProt P48729); experiment: Inhibition of CK1alpha1 assessed as residual activity at 10 uM relative to control
[6] = target: T2, Cyclin-dependent kinase 5/CDK5 activator 1 (Homo sapiens) (UniProt Q00535+Q15078); experiment: Inhibition of CDK5/p25 assessed as residual activity at 10 uM relative to control; type: protein-complex assay
[7] = target: Mitogen-activated protein kinase 3 (Homo sapiens) (UniProt P27361); experiment: Inhibition of ERK1 at 10 uM relative to control; set-up: scale not given: the % may be the effect or the level left
[8] = target: MAP kinase-activated protein kinase 2 (Homo sapiens) (UniProt P49137); experiment: Inhibition of MAPKAPK2 assessed as residual activity at 10 uM relative to control
[9] = target: Glycogen synthase kinase-3 alpha (Homo sapiens) (UniProt P49840); experiment: Inhibition of human GSK3alpha assessed as residual activity at 1 uM relative to control
[10] = target: T2, Cyclin-dependent kinase 5/CDK5 activator 1 (Homo sapiens); experiment: Inhibition of CDK5/p25 assessed as residual activity at 1 uM relative to control; type: protein-complex assay
[11] = target: T3, Tyrosine-protein kinase receptor TYRO3 (Homo sapiens) (UniProt Q06418); experiment: Inhibition of TYRO3/SKY assessed as residual activity at 10 uM relative to control
T3 sequence (whole entry): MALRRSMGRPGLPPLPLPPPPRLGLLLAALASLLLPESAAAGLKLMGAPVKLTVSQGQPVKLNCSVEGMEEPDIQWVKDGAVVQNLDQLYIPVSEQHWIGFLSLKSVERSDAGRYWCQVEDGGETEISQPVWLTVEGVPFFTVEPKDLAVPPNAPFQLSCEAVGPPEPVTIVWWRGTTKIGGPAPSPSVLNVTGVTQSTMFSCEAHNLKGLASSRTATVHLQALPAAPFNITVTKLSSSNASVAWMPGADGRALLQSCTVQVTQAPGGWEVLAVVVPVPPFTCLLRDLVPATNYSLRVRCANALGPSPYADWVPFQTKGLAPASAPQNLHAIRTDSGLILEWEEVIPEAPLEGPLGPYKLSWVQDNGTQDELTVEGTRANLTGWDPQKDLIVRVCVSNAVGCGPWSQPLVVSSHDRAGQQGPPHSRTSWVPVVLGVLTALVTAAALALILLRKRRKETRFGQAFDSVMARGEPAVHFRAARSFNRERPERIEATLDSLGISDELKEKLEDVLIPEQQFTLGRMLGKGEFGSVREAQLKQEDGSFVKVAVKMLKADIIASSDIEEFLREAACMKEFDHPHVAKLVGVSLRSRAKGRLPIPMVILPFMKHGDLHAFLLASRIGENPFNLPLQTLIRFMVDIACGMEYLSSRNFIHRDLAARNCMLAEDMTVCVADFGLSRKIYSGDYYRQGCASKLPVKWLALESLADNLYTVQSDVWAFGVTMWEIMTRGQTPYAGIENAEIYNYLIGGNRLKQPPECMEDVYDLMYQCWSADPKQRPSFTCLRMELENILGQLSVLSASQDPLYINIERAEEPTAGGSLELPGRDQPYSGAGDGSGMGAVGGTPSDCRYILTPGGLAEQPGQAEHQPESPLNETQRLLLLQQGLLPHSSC

[12] = target: Epidermal growth factor receptor (Homo sapiens) (UniProt P00533); experiment: Inhibition of EGFR assessed as residual activity at 10 uM relative to control
[13] = target: T1, Glycogen synthase kinase-3 beta
Target sequence in this assay (P49841 whole entry): as the sequence (P49841 whole entry, looked up) above

T2 sequence (Q00535 whole entry): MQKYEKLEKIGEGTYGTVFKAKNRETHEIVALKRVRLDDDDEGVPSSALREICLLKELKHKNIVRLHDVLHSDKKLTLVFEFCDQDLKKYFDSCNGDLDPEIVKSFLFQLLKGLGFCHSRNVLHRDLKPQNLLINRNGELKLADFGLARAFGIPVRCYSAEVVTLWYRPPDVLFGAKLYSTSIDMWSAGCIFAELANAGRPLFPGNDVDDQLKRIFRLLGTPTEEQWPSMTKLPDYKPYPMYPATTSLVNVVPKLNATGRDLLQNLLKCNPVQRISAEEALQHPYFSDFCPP
T2 sequence (Q15078 99-307 partner limits assumed): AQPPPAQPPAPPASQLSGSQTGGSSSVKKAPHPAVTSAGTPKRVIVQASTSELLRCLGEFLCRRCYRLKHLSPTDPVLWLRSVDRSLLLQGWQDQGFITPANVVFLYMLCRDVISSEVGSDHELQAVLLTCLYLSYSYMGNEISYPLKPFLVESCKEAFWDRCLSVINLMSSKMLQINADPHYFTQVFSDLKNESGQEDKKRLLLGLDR
Chain of Glycogen synthase kinase-3 alpha (Homo sapiens) (P49840 2-483 limits assumed): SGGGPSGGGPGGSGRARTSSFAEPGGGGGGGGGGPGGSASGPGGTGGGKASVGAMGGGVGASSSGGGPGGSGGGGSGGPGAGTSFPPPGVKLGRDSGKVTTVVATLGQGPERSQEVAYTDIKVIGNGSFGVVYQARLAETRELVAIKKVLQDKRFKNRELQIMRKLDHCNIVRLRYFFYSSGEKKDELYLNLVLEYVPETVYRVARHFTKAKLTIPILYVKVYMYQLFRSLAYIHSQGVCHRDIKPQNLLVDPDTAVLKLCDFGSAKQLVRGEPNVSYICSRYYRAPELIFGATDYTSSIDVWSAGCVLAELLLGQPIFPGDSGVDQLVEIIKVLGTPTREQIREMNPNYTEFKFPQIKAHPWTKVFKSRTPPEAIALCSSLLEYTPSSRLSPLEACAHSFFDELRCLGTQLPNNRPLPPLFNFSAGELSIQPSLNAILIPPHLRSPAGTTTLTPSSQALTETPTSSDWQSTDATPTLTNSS
Chain of Casein kinase II subunit alpha (Homo sapiens) (P68400 whole entry, looked up): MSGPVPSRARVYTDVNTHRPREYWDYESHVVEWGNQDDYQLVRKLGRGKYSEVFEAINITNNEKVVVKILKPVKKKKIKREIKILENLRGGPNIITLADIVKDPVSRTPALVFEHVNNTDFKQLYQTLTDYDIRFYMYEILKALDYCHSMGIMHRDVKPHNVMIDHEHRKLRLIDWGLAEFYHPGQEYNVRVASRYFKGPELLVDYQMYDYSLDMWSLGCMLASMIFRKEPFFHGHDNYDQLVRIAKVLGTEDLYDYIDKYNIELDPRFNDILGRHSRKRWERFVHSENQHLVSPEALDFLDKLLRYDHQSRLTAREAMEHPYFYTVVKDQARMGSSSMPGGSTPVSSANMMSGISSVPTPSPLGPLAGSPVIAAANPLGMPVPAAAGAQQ
Chain of Mitogen-activated protein kinase 8 (Homo sapiens) (P45983 whole entry, canonical isoform): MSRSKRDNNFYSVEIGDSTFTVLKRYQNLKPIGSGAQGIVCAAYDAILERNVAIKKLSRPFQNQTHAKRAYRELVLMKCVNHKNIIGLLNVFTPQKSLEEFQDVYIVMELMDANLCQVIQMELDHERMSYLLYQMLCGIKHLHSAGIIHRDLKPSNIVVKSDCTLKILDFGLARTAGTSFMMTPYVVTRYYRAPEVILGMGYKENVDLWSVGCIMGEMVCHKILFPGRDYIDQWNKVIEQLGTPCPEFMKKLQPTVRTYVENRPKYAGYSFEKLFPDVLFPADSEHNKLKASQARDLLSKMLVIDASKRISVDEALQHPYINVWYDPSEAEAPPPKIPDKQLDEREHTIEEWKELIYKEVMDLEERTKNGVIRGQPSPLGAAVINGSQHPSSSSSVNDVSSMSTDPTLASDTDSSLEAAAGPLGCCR
Chain of Insulin-like growth factor 1 receptor (Homo sapiens) (P08069 31-736 limits assumed): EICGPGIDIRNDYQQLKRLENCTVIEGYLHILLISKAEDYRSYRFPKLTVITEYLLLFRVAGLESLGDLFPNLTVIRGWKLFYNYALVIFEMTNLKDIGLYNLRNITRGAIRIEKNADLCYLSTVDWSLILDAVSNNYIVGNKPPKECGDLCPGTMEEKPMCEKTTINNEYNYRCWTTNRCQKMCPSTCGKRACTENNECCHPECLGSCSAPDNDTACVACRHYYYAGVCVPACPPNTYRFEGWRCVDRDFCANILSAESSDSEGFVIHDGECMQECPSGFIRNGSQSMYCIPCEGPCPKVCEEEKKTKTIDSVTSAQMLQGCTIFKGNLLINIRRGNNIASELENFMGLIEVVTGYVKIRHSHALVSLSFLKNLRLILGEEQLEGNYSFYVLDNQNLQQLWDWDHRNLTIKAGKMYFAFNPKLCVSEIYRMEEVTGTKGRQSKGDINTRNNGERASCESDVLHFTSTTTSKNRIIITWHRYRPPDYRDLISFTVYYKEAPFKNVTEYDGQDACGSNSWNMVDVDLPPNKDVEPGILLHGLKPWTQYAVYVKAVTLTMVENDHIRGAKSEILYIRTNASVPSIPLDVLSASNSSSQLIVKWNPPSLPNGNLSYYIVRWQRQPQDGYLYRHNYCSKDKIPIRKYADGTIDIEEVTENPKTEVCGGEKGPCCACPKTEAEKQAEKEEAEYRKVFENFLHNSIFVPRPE
Chain of Insulin-like growth factor 1 receptor (Homo sapiens) (P08069 741-1367 limits assumed): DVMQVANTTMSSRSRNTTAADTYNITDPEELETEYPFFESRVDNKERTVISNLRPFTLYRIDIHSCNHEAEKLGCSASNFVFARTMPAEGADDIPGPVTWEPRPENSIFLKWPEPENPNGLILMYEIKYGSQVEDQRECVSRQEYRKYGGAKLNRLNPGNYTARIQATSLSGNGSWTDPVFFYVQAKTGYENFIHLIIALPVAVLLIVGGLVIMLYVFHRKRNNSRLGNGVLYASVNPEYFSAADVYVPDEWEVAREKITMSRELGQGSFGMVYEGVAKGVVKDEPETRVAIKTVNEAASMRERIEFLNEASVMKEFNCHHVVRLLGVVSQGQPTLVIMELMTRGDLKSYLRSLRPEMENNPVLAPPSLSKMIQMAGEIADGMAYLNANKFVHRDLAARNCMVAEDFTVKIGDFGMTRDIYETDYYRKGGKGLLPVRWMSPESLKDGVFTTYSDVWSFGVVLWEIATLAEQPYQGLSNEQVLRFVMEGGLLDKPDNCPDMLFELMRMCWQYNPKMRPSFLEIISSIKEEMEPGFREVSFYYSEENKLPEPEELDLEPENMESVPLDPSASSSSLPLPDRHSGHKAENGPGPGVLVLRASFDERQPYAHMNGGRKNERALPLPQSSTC
Chain of Casein kinase I isoform alpha (Homo sapiens) (P48729 2-337 limits assumed): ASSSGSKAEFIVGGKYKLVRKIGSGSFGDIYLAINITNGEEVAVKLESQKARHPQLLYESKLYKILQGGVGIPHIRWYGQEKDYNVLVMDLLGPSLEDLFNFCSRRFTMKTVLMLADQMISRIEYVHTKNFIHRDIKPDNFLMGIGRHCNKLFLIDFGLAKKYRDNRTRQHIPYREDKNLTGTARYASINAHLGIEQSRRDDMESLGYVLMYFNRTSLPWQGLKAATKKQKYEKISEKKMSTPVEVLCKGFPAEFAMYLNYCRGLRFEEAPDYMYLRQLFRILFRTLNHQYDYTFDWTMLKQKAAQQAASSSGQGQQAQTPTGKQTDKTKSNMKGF
Chain of MAP kinase-activated protein kinase 2 (Homo sapiens) (P49137 whole entry, looked up): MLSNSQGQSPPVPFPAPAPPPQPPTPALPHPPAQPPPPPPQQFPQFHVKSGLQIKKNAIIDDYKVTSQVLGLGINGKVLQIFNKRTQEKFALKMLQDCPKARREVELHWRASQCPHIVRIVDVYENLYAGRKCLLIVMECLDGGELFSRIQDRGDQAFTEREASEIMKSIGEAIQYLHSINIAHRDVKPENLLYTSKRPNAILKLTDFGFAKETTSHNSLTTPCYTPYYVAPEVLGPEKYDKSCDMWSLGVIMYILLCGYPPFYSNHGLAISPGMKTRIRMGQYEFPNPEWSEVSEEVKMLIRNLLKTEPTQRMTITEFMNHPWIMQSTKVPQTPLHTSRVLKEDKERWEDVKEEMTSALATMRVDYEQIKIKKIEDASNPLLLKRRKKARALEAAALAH
Chain of Mitogen-activated protein kinase 3 (Homo sapiens) (P27361 whole entry): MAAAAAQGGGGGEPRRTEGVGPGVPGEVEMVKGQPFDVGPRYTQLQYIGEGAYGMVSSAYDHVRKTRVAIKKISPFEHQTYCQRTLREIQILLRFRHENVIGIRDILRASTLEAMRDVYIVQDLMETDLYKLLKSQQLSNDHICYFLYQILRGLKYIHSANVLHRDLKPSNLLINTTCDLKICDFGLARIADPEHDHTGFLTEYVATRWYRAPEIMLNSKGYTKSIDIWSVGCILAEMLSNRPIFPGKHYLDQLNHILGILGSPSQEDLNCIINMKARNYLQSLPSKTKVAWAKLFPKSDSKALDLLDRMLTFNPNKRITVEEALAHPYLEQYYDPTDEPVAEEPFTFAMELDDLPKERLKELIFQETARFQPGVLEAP

| Structure (SMILES) | Activity [9] [%] | Activity [10] [%] | also measured |
| --- | --- | --- | --- |
| c1ccc(Nc2ncnc3[nH]c(-c4ccccc4)nc23)cc1 | 5 | 63 | Activity [1]: 96.2%; Activity [2]: 77%; Activity [3]: 18.6%; Activity [4]: 93.3%; Activity [5]: 100%; Activity [6]: 59.8%; Activity [7]: 110%; Activity [8]: 78.2%; Activity [11]: 96.7%; Activity [12]: 32.7% |
| COc1ccc(CNc2ncnc3c2nc(-c2ccccc2)n3C)cc1 | – | 100 | – |
| O=C(Nc1ncnc2nc(-c3ccc4ccccc4c3)[nH]c12)C1CC1 | – | – | IC50 [13]: 169 nM |
| Cn1c(-c2cccc(F)c2)nc2c(NC(=O)C3CC3)ncnc21 | – | 99 | – |
| CC(=O)Nc1ncnc2[nH]c(-c3ccc4ccccc4c3)nc12 | 49 | 98 | – |
| O=C(Nc1ncnc2[nH]c(/C=C/c3ccccc3)nc12)c1ccccc1 | 47 | 104 | – |
| O=C(Nc1ncnc2[nH]c(-c3ccccc3)nc12)C1CCCN1 (centres undefined) | – | 93 | – |
| COc1ccc(CNc2ncnc3c2nc(-c2cccc(F)c2)n3C)cc1 | – | 96 | – |
| c1ccc(Nc2ncnc3nc(-c4ccccc4)[nH]c23)cc1 | – | – | IC50 [13]: 16 nM |
| CCCCC(=O)Nc1ncnc2[nH]c(/C=C/c3ccccc3)nc12 | 55 | 103 | – |
| N#Cc1cccc(-c2nc3c(Nc4ccccc4)ncnc3[nH]2)c1 | 2 | 63 | – |
| CC(C)CC(=O)Nc1ncnc2[nH]c(-c3ccccc3)nc12 | – | 102 | – |
| CCCCC(=O)Nc1ncnc2nc(-c3cccc(C#N)c3)[nH]c12 | – | – | IC50 [13]: 1220 nM |
| COc1ccc(CNc2ncnc3nc(-c4ccc(Cl)cc4)n(C)c23)cc1 | – | 105 | – |
| O=C(Nc1ncnc2[nH]c(-c3ccc4ccccc4c3)nc12)C1CC1 | – | 101 | Activity [1]: 100%; Activity [2]: 59.5%; Activity [3]: 18.4%; Activity [4]: 99.2%; Activity [5]: 91.9%; Activity [6]: 91.4%; Activity [7]: 99.4%; Activity [8]: 101%; Activity [11]: 78.2%; Activity [12]: 91.6% |
| CC(C)C(=O)Nc1ncnc2[nH]c(-c3ccccc3)nc12 | – | 99 | – |
| c1ccc(CNc2ncnc3[nH]c(-c4ccccc4)nc23)cc1 | – | 84 | – |
| COc1ccc(CNc2ncnc3nc(-c4cccc(F)c4)n(C)c23)cc1 | – | 99 | – |
| CCCCC(=O)Nc1ncnc2[nH]c(-c3ccc4ccccc4c3)nc12 | 31 | 102 | IC50 [13]: > 20000 nM |
| CC(=O)Nc1ncnc2[nH]c(-c3ccccc3)nc12 | – | 101 | – |
| Cn1c(-c2ccc([N+](=O)[O-])cc2)nc2ncnc(NCc3ccccc3)c21 | – | 101 | – |

| Structure (SMILES) | Activity [9] [%] | Activity [10] [%] | also measured |
| --- | --- | --- | --- |
| O=C(Nc1ncnc2[nH]c(-c3ccccc3)nc12)c1ccccc1 | 67 | 102 | – |
| O=C(Nc1ncnc2[nH]c(-c3ccc4ccccc4c3)nc12)c1ccccc1 | 83 | 100 | – |
| CN[C@@H]1C[C@H]2O[C@@](C)([C@@H]1OC)n1c3ccccc3c3c4c(c5c6ccccc6n2c5c31)C(=O)NC4 | – | 98.4 | – |
| C(=C\c1nc2c(NCCN3CCOCC3)ncnc2[nH]1)/c1ccccc1 | 99 | 101 | – |
| N#Cc1cccc(-c2nc3ncnc(Nc4ccccc4)c3[nH]2)c1 | – | – | IC50 [13]: 26 nM |
| COc1ccc(CNc2ncnc3[nH]c(-c4ccccc4)nc23)cc1 | – | 93 | – |
| COc1ccc(-c2nc3ncnc(NCc4ccccc4)c3n2C)cc1 | – | 102 | – |
| Cn1c(-c2cccc(F)c2)nc2c(NCc3ccccc3)ncnc21 | – | 96 | – |
| COc1ccc(C(=O)Nc2ncnc3[nH]c(-c4cccc(Cl)c4)nc23)cc1 | 71 | 102 | – |
| O=C(Nc1ncnc2[nH]c(/C=C/c3ccccc3)nc12)C1CC1 | 55 | 100 | – |
| CCCCC(=O)Nc1ncnc2[nH]c(-c3cccc(C#N)c3)nc12 | 34 | 101 | – |
| CC(=O)Nc1ncnc2[nH]c(-c3cccc(C#N)c3)nc12 | 79 | 103 | – |
| O=C(Nc1ncnc2[nH]c(/C=C/c3ccccc3)nc12)c1cccc(Br)c1 | 92 | 101 | – |
| CCCCC(=O)Nc1ncnc2[nH]c(-c3ccccc3)nc12 | – | 103 | – |
| C(=C\c1nc2c(Nc3ccccc3)ncnc2[nH]1)/c1ccccc1 | 58 | 100 | – |
| O=C(Nc1ncnc2[nH]c(-c3cccc(Cl)c3)nc12)c1ccccc1 | 60 | 102 | – |
| N#Cc1cccc(-c2nc3c(NC(=O)C4CC4)ncnc3[nH]2)c1 | 30 | 103 | IC50 [13]: 781 nM |
| COc1ccc(C(=O)Nc2ncnc3[nH]c(/C=C/c4ccccc4)nc23)cc1 | 96 | 104 | – |
| N#Cc1cccc(-c2nc3c(NC(=O)c4ccccc4)ncnc3[nH]2)c1 | 69 | 102 | – |
| C(=C\c1nc2c(NCc3cccnc3)ncnc2[nH]1)/c1ccccc1 | 84 | 96 | – |
| Cn1c(-c2ccccc2)nc2c(NCc3cccnc3)ncnc21 | – | 99 | – |

Continued, in another order:

| Activity [9] [%] | Activity [10] [%] | Structure (SMILES) | also measured |
| --- | --- | --- | --- |
| 57 | 83 | c1cncc(-c2nc3c(OC4CCCC4)ncnc3[nH]2)c1 | – |
| 43 | 107 | COc1ccc(C(=O)Nc2ncnc3[nH]c(-c4cccnc4)nc23)cc1 | – |
| 87 | 101 | C(=C\c1nc2c(N3CCCC3)ncnc2[nH]1)/c1ccccc1 | – |
| – | 67 | O=C(Nc1ncnc2[nH]c(-c3ccccc3)nc12)C1CCCCN1 (centres undefined) | – |
| – | 101 | c1cncc(-c2nc3c(OCC4CCCCC4)ncnc3[nH]2)c1 | – |
| – | 54 | c1ccc(-c2nc3c(OC4CCCC4)ncnc3[nH]2)cc1 | – |
| – | 84 | c1ccc(-c2nc3c(NCc4cccnc4)ncnc3[nH]2)cc1 | – |
| – | 100 | Cn1c(-c2cccc(F)c2)nc2c(N3CCCC3)ncnc21 | – |
| 17 | 100 | O=C(Nc1ncnc2[nH]c(-c3cccc(Cl)c3)nc12)C1CC1 | IC50 [13]: 365 nM |
| – | 102 | c1cncc(CNc2ncnc3[nH]c(-c4cccnc4)nc23)c1 | – |
| – | 95 | COc1ccc(CNc2ncnc3[nH]c(-c4cccnc4)nc23)cc1 | – |
| – | 71 | c1cncc(-c2nc3c(N4CCOCC4)ncnc3[nH]2)c1 | – |
| – | 97 | Cn1c(-c2ccc(Cl)cc2)nc2ncnc(N3CCCC3)c21 | – |
| – | 101 | Cn1c(-c2ccc([N+](=O)[O-])cc2)nc2ncnc(N3CCCC3)c21 | – |
| – | 96 | O=C(Nc1ncnc2[nH]c(-c3ccccc3)nc12)C1CC1 | – |
| – | 85 | CN(C)c1ncnc2[nH]c(-c3ccccc3)nc12 | – |
| – | 100 | Cn1c(-c2ccccc2)nc2c(N3CCCC3)ncnc21 | – |
| 61 | 102 | O=C(Nc1ncnc2[nH]c(-c3cccnc3)nc12)c1ccccc1 | – |
| – | 100 | c1cncc(-c2nc3c(N4CCCC4)ncnc3[nH]2)c1 | – |
